Measured values from patent US20100056524A1, “Compound” (priority 2008, published 2010).
Read-outs that look alike come from different tables or passages of the source.

Columns and labels:
[1] = biological target: T1, p38g MAPK (Homo sapiens, UniProt P53778); assay: p38g MAPK protein kinase assay; format: biochemical; details: for remaining activity at 10 µM: 10 μM compound; for residual kinase activity p38g MAPK: 1 μm compound
T1 construct: All protein kinases were of human origin and encoded full length proteins, unless indicated otherwise; made in house
T1 sequence (P53778 1-367): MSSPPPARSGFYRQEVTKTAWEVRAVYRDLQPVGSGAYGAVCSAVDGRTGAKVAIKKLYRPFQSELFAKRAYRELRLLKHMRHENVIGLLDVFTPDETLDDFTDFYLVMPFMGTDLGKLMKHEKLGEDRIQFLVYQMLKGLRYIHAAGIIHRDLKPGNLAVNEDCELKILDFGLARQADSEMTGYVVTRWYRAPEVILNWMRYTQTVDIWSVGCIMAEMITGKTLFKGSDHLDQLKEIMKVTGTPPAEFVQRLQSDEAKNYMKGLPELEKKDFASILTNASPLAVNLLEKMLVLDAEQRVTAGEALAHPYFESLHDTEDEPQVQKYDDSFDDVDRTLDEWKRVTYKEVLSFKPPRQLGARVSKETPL
Source text: (§1) All protein kinases were of human origin and encoded full length proteins, unless indicated otherwise. They were either expressed as glutathione S-transferase (GST) fusion proteins in Escherichia Coli or as hexahistidine (His6)-tagged proteins in insect Sf21 cells. GST fusion proteins were purified by affinity chromatography on glutathione-Sepharose, and His6-tagged proteins on nickel/nitriloacetate-agarose. The procedures for expressing some of the protein kinases used herein have been detailed previously.^8,9 The following sections outline the DNA vectors synthesised and the procedures used to express and purifying protein kinases that have not been reported previously.
(§2) All assays (25.5 μl) were carried out at room temperature (21° C.) and were linear with respect to time and enzyme concentration under the conditions used. Assays were performed for 30 min using Multidrop Micro reagent dispensers (Thermo Electron Corporation, Waltham, Mass. 02454, USA) in a 96-well format. The concentration of magnesium acetate in the assays was 10 mM and the [γ-33P] ATP (800 cpm/pmol) was used at 5, 20 or 50 μM as indicated, in order to be at or below the Km for ATP for each enzyme. Protein kinases assayed at 5 μM ATP were: —ERK1, ERK8, PKBα, MARK3, Aurora C. Protein kinases assayed at 20 μM ATP were: —JNK1, PDK1, CHK1, CHK2, CDK2 and Aurora B. Protein kinases assayed at 50 μM ATP were: —MNK2, IKKepsilon and TBK1.
(§3) The assays were initiated with MgATP, stopped by addition of 5 μl of 0.5 M orthophosphoric acid and spotted on to P81 filterplates using a unifilter harvester (PerkinElmer, Boston, Mass. 02118, USA). The IC50 values of inhibitors were determined after carrying out assays at 10 different concentrations of each compound.
(§4) Unless stated otherwise, enzymes were diluted in 50 mM Tris/HCl pH 7.5, 0.1 mM EGTA, 1 mg/ml BSA, 0.1% (v/v) 2-mercaptoethanol and assayed in 50 mM Tris/HCl pH 7.5, 0.1 mM EGTA, 0.1% (v/v) 2-mercaptoethanol.

[2] = biological target: T2, S6K1 (Homo sapiens, UniProt P23443, T412E); assay: S6K1 protein kinase assay; format: biochemical; details: for remaining activity at 10 µM: 10 μM compound; for residual kinase activity S6K1: 1 μm compound
T2 construct: All protein kinases were of human origin and encoded full length proteins, unless indicated otherwise; made in house
T2 sequence (P23443 1-421 T412E limits assumed): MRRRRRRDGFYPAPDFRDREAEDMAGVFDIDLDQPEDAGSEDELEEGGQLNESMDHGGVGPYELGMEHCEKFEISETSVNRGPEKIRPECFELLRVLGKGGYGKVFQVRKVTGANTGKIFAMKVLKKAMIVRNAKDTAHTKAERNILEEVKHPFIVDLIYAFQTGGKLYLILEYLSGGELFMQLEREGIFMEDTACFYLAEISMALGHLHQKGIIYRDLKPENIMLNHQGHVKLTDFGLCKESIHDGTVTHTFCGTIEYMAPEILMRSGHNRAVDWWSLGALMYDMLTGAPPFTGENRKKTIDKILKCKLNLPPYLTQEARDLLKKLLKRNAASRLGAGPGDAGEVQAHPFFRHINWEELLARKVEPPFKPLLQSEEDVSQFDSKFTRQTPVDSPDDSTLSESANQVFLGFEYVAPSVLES
Source text: as §1, §2, §3, §4

[3] = biological target: T3, PKA (Homo sapiens, UniProt P17612); assay: PKA protein kinase assay; format: biochemical; details: for remaining activity at 10 µM: 10 μM compound; for residual kinase activity PKA: 1 μm compound
T3 construct: All protein kinases were of human origin and encoded full length proteins, unless indicated otherwise; made in house
Source text: as §1, §2, §3, §4

[4] = system: ROCK 2; assay: ROCK 2 protein kinase assay; format: biochemical, human; details: for residual kinase activity: ROCK 2
Source text: as §1, §2, §3, §4

[5] = system: SmMLCK; assay: SmMLCK protein kinase assay; format: biochemical, human; details: for residual kinase activity: SmMLCK
Source text: as §1, §2, §3, §4

[6] = system: PHK; assay: PHK protein kinase assay; format: biochemical, human; details: for residual kinase activity: PHK
Source text: as §1, §2, §3, §4

[7] = system: CK2; assay: CK2 protein kinase assay; format: biochemical, human; details: for residual kinase activity: CK2
Source text: as §1, §2, §3, §4

[8] = biological target: T4, IKKb (Homo sapiens, UniProt O14920); assay: IKKb protein kinase assay; format: biochemical; details: for remaining activity at 10 µM: 10 μM compound; for residual kinase activity IKKb: 1 μm compound
T4 construct: All protein kinases were of human origin and encoded full length proteins, unless indicated otherwise; made in house
T4 sequence (O14920 1-756): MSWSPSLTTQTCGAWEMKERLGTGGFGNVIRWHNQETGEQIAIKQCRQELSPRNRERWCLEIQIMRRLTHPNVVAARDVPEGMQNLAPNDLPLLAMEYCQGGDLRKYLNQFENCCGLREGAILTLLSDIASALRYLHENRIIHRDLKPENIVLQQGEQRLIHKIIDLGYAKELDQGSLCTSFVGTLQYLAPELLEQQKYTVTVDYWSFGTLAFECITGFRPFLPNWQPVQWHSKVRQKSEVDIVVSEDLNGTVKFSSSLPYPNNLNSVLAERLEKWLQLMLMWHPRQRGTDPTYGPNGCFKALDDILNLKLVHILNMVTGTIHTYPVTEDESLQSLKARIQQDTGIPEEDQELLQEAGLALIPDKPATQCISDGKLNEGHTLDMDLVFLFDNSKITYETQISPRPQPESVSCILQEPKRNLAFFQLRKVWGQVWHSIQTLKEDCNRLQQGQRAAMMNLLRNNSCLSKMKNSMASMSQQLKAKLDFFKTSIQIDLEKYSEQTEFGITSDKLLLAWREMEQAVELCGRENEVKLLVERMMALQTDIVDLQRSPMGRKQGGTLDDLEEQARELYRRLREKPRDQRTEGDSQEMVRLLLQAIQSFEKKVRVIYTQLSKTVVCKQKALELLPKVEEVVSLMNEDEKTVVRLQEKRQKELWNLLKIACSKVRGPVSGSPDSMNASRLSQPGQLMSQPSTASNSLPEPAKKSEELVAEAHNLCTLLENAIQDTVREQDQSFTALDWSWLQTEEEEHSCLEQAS
Source text: as §1, §2, §3, §4

[9] = biological target: T5, PIM1 (Homo sapiens, UniProt P11309); assay: PIM1 protein kinase assay; format: biochemical; details: for remaining activity at 10 µM: 10 μM compound; for residual kinase activity PIM1: 1 μm compound
T5 construct: All protein kinases were of human origin and encoded full length proteins, unless indicated otherwise; made in house
T5 sequence (P11309 whole entry): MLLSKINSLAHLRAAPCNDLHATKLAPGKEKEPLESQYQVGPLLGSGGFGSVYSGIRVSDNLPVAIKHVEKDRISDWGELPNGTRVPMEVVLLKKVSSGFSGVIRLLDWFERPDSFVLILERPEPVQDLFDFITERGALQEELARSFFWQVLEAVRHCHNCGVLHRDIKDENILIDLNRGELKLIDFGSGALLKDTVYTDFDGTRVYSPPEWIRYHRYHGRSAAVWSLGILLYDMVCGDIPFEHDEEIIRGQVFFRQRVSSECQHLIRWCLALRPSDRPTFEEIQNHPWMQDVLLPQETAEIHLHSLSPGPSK
Source text: as §1, §2, §3, §4

[10] = biological target: T6, PIM2 (Homo sapiens, UniProt Q9P1W9); assay: PIM2 protein kinase assay; format: biochemical; details: for remaining activity at 10 µM: 10 μM compound; for residual kinase activity PIM2: 1 μm compound
T6 construct: All protein kinases were of human origin and encoded full length proteins, unless indicated otherwise; made in house
T6 sequence (Q9P1W9 whole entry): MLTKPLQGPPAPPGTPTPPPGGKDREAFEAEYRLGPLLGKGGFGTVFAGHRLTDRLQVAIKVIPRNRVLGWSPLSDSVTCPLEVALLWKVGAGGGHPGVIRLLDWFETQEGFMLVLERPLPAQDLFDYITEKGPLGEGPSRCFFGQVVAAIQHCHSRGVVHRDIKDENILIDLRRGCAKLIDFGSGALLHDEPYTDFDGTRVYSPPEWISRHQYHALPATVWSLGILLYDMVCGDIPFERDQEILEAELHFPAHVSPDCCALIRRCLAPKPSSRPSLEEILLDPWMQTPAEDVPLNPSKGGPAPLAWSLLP
Source text: as §1, §2, §3, §4

[11] = biological target: T7, SYK (Homo sapiens, UniProt P43405); assay: SYK protein kinase assay; format: biochemical; details: for remaining activity at 10 µM: 10 μM compound; for residual kinase activity SYK: 1 μm compound
T7 construct: All protein kinases were of human origin and encoded full length proteins, unless indicated otherwise; made in house
Source text: as §1, §2, §3, §4

[12] = read-out: residual kinase activity p38g MAPK
[13] = read-out: residual kinase activity S6K1
[14] = read-out: residual kinase activity PKA
[15] = read-out: residual kinase activity IKKb
[16] = read-out: residual kinase activity PIM1
[17] = read-out: residual kinase activity PIM2
[18] = read-out: residual kinase activity SYK

## O=C(NCCCNc1nc(Nc2cccc(F)c2)ncc1Br)C1CCC1 [Compound A, cyclobutanecarboxylic acid {3-[5-bromo-2-(3-fluoro-phenylamino)-pyrimidin-4-ylamino]-propyl}-amide, reference compound]
[1]; [12]
  remaining activity at 10 µM: 17%
[1]
  residual kinase activity p38g MAPK: 65%
[2]; [13]
  remaining activity at 10 µM: 13%
[2]
  residual kinase activity S6K1: 49%
[3]; [14]
  remaining activity at 10 µM: 22%
[3]
  residual kinase activity PKA: 75%
[4]; 10 μM compound
  residual kinase activity ROCK 2: 11%
[4]; 1 μm compound
  residual kinase activity ROCK 2: 33%
[5]; 10 μM compound
  residual kinase activity SmMLCK: 59%
[5]; 1 μm compound
  residual kinase activity SmMLCK: 101%
[6]; 10 μM compound
  residual kinase activity PHK: 0%
[6]; 1 μm compound
  residual kinase activity PHK: 7%
[7]; 10 μM compound
  residual kinase activity CK2: 44%
[7]; 1 μm compound
  residual kinase activity CK2: 77%
[8]; [15]
  remaining activity at 10 µM: 66%
[8]
  residual kinase activity IKKb: 93%
[9]; [16]
  remaining activity at 10 µM: 50%
[9]
  residual kinase activity PIM1: 52%
[10]; [17]
  remaining activity at 10 µM: 75%
[10]
  residual kinase activity PIM2: 90%
[11]; [18]
  remaining activity at 10 µM: 4%
[11]
  residual kinase activity SYK: 25%

## O=C(NCCCNc1nc(Nc2cccc(F)c2)ncc1C1CC1)C1CCC1 [Example 23, Cyclobutanecarboxylic acid {3-[5-cyclopropyl-2-(3-fluoro-phenylamino)-pyrimidin-4-ylamino]-propyl}-amide]
[1]; [12]
  remaining activity at 10 µM: 91%
[1]
  residual kinase activity p38g MAPK: 81%
[1]; p38g MAPK, 1 μM compound, read-out: residual kinase activity
  remaining activity at 1 µM: 81%
[1]; p38g MAPK, read-out: residual kinase activity
  remaining activity at 10 µM: 91%
[2]; [13]
  remaining activity at 10 µM: 30%
[2]
  residual kinase activity S6K1: 38%
[2]; S6K1, 1 μM compound, read-out: residual kinase activity
  remaining activity at 1 µM: 38%
[2]; S6K1, read-out: residual kinase activity
  remaining activity at 10 µM: 30%
[3]; [14]
  remaining activity at 10 µM: 73%
[3]
  residual kinase activity PKA: 80%
[3]; PKA, 1 μM compound, read-out: residual kinase activity
  remaining activity at 1 µM: 80%
[3]; PKA, read-out: residual kinase activity
  remaining activity at 10 µM: 73%
[4]; 10 μM compound
  residual kinase activity ROCK 2: 40%
  residual kinase activity: 40%
[4]; 1 μm compound
  residual kinase activity ROCK 2: 77%
[4]; 1 μM compound
  residual kinase activity: 77%
[5]; 10 μM compound
  residual kinase activity SmMLCK: 74%
  residual kinase activity: 74%
[5]; 1 μm compound
  residual kinase activity SmMLCK: 72%
[5]; 1 μM compound
  residual kinase activity: 72%
[6]; 10 μM compound
  residual kinase activity PHK: 3%
  residual kinase activity: 3%
[6]; 1 μm compound
  residual kinase activity PHK: 28%
[6]; 1 μM compound
  residual kinase activity: 28%
[7]; 10 μM compound
  residual kinase activity CK2: 107%
  residual kinase activity: 107%
[7]; 1 μm compound
  residual kinase activity CK2: 111%
[7]; 1 μM compound
  residual kinase activity: 111%
[8]; [15]
  remaining activity at 10 µM: 80%
[8]
  residual kinase activity IKKb: 75%
[8]; IKKb, 1 μM compound, read-out: residual kinase activity
  remaining activity at 1 µM: 75%
[8]; IKKb, read-out: residual kinase activity
  remaining activity at 10 µM: 80%
[9]; [16]
  remaining activity at 10 µM: 46%
[9]
  residual kinase activity PIM1: 78%
[9]; PIM1, 1 μM compound, read-out: residual kinase activity
  remaining activity at 1 µM: 78%
[9]; PIM1, read-out: residual kinase activity
  remaining activity at 10 µM: 46%
[10]; [17]
  remaining activity at 10 µM: 67%
[10]
  residual kinase activity PIM2: 74%
[10]; PIM2, 1 μM compound, read-out: residual kinase activity
  remaining activity at 1 µM: 74%
[10]; PIM2, read-out: residual kinase activity
  remaining activity at 10 µM: 67%
[11]; [18]
  remaining activity at 10 µM: 46%
[11]
  residual kinase activity SYK: 87%
[11]; SYK, 1 μM compound, read-out: residual kinase activity
  remaining activity at 1 µM: 87%
[11]; SYK, read-out: residual kinase activity
  remaining activity at 10 µM: 46%
